For one assay, the system named is mouse cardiomyoctes. As for the experimental part: Cell hypertrophy was determined by the incorporation of ^3H-leucine.
Another assay relates to cardiomyocytes. The conditions noted are these: cardiomyocytes in vitro.
Assay [1] concerns gridlock phenotype associated with mutations in the CHF1 gene in zebrafish. To be noted: Peterson, et al., Nat. Biotechnol. 22:595-599 (2004); cited from earlier work.
In the next assay the test system is VEGF. The conditions noted are these: Peterson, et al., Nat. Biotechnol. 22:595 (2004); cited from earlier work.

Results on 1 molecule are retold here after patent publication US20090054500A1, “Composition and methods useful in preventing cardiac hypertrophy” (The Brigham and Women's Hospital, Inc., priority 2005, published 2009).

Values joined by “and” are separate entries in the source; they are usually repeats but may differ in a detail not shown here. Identical values can stand only once. Like-named read-outs stand apart in the source and are kept apart here.

Take `COc1ccc(SCCc2ccncc2)cc1.Cl` [GS4012, 4-(2-(4-Methoxyphenylsulfanyl)ethyl)pyridine, HCl]: the “incorporation of 3H-leucine (cell hypertrophy), mean” value in the assay with mouse cardiomyoctes (Table 2, GS4012 + FCS, mean of 12 tests) was 340.5825 counts per minute; with mouse cardiomyoctes (Table 2, GS4012, no FCS, mean of 12 tests), 397.6667 counts per minute; in the assay on mouse cardiomyoctes (Table 3, WT, GS4012 2.5 μg/ml, no FCS, mean of 8 tests, HCl), 329.4 counts per minute and 329.37 counts per minute; in the assay with mouse cardiomyoctes (Table 3, WT, GS4012 + FCS, mean of 8 tests, HCl), 419.7925 counts per minute and 419.8 counts per minute. Further, the “FCS induction of cardiomyocyte proliferation when GS4012 was present” value in the assay with mouse cardiomyoctes (cpm for vehicle+GS4012 compared with vehicle+GS4012+FCS) is “did not occur”. Moreover, the “effect on phenylephrine-induced hypertrophy” value in the assay on cardiomyocytes is given as “prevent phenylephrine-induced hypertrophy”. Moreover, the “effect on gridlock phenotype” value in assay [1] is given as “suppresses the gridlock phenotype”. In addition, the “VEGF and VEGF-mediated vessel formation” value with VEGF was “induces”.
